Results from patent US9636418B2 (priority 2013, dated 2017).
Read-outs that look alike come from different tables or passages of the source.

Key:
[1] = target: hNav1.7 (Homo sapiens, UniProt Q15858); assay: cell-based; type: cell-based; details: PatchXpress, read-out: PX hNav1.7 Tonic IC50
[2] = target: hNav1.4 (Homo sapiens, UniProt P35499); assay: cell-based; details: for IC50: PatchXpress, read-out: PX hNav1.4 Tonic IC50
[3] = * = at high concentrations compound would wash off slowly or not at all

Chain of hNav1.4 (P35499 whole entry): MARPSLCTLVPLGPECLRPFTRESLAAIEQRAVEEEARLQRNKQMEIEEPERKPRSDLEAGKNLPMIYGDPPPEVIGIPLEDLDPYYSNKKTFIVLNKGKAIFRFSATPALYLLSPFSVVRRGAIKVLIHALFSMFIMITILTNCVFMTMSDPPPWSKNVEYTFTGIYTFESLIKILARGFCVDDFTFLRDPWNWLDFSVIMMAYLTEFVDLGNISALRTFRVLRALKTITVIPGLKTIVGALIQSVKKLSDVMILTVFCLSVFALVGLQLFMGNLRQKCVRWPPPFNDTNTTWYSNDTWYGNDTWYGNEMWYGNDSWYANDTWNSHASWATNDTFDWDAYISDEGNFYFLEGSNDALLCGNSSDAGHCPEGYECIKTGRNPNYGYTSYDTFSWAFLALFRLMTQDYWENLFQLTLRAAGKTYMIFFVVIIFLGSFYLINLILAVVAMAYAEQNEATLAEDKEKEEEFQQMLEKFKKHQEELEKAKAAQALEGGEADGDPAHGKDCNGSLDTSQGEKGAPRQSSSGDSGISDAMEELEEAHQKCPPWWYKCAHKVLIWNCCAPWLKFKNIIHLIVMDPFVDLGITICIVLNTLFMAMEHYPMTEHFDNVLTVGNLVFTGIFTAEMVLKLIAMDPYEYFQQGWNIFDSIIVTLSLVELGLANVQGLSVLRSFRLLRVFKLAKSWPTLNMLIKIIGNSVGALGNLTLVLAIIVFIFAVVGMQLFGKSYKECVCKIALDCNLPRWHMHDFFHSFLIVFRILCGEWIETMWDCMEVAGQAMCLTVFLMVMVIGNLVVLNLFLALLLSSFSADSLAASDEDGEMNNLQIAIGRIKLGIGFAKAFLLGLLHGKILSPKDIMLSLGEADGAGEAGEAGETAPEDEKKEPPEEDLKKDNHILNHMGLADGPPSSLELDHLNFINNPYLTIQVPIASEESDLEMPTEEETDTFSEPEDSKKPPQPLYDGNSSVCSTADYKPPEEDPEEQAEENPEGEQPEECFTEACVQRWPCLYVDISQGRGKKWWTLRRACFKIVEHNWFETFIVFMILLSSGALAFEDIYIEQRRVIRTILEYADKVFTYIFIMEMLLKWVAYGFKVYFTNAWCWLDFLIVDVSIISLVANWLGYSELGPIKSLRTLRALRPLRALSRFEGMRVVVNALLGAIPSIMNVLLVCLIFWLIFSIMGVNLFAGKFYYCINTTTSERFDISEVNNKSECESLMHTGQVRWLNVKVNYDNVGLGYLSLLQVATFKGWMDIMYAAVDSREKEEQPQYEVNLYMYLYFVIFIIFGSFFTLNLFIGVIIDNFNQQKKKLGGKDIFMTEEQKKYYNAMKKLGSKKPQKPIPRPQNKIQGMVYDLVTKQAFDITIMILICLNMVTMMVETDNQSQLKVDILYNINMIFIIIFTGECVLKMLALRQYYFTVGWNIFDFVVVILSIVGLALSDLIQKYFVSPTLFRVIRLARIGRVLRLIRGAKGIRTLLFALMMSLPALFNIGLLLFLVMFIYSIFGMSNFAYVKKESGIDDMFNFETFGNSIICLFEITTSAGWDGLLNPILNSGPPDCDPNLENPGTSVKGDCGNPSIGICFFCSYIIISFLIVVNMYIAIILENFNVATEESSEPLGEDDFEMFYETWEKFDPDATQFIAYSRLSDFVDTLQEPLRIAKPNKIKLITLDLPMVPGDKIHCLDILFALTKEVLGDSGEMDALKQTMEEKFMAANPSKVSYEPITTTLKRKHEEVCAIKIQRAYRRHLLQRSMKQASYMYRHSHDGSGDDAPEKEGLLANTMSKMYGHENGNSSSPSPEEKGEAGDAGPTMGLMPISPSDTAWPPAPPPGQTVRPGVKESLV
Chain of hNav1.7 (Q15858 whole entry): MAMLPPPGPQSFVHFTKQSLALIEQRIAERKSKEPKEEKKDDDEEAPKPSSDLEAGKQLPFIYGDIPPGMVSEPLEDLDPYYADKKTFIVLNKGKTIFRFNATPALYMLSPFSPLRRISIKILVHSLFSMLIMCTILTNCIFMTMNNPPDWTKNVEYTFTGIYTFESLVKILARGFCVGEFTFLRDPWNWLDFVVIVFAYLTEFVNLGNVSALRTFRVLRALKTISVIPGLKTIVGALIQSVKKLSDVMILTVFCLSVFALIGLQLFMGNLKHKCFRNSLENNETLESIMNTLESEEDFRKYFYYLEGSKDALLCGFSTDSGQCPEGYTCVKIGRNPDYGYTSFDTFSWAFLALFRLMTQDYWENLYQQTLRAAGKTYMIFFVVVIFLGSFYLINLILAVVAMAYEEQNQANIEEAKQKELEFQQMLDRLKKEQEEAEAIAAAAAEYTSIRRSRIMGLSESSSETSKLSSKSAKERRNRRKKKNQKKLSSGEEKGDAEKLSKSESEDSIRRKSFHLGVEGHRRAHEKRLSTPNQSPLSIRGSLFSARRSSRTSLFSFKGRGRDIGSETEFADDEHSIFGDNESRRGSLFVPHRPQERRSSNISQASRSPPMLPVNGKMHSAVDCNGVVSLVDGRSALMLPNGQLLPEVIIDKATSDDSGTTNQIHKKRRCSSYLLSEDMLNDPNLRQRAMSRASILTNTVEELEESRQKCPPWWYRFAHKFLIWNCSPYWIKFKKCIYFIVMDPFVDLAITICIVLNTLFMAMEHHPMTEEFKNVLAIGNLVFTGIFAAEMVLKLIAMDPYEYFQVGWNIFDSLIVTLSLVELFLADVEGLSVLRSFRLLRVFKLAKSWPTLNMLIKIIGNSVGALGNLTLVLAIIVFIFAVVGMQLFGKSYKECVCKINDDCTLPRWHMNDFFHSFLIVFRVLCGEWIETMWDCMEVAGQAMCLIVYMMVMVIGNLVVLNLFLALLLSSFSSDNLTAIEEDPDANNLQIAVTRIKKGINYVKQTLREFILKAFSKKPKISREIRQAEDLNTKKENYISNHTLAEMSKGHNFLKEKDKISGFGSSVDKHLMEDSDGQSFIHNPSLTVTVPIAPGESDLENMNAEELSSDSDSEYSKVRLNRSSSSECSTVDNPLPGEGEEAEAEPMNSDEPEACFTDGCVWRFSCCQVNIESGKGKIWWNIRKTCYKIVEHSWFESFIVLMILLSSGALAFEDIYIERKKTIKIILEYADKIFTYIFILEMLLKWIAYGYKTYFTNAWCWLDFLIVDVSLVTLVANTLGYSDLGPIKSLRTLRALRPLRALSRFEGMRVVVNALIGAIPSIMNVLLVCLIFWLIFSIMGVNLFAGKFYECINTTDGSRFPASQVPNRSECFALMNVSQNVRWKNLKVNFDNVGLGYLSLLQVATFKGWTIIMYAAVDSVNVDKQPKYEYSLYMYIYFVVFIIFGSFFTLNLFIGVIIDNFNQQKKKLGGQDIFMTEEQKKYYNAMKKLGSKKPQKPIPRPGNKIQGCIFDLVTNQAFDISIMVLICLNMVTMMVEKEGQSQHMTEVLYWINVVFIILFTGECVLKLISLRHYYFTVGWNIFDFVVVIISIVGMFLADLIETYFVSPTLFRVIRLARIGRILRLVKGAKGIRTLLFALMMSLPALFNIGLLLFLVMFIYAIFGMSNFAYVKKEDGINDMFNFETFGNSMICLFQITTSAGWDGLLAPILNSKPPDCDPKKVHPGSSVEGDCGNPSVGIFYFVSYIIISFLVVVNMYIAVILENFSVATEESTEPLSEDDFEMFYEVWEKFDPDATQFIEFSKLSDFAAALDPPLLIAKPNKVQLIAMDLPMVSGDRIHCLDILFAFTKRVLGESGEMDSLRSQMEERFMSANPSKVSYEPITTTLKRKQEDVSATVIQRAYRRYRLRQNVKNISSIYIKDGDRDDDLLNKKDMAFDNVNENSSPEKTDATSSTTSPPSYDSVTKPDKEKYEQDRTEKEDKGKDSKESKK

Compound: CCCC[C@@H]1NC(=O)[C@H](Cc2c[nH]c3ccccc23)NC(=O)[C@H](CCCCN)NC(=O)[C@H](CCC(N)=O)NC(=O)[C@@H](NC(=O)[C@@H](N)Cc2ccc(O)cc2)CSSC[C@@H]2NC(=O)[C@@H]3CSSC[C@@H](C(=O)N[C@@H](CCCNC(=N)N)C(=O)N[C@@H](CCCCN)C(=O)N[C@@H](CCC(=O)O)C(=O)N[C@H](C(N)=O)[C@@H](C)CC)NC(=O)[C@H](Cc4c[nH]c5ccccc45)NC(=O)[C@H](CC(C)C)NC(=O)[C@H](CCCCN)NC(=O)[C@H](CSSC[C@H](NC(=O)[C@H]([C@@H](C)O)NC(=O)[C@H](Cc4c[nH]c5ccccc45)NC1=O)C(=O)N[C@@H](CC(=O)O)C(=O)N[C@@H](CO)C(=O)N[C@@H](CCCCN)C(=O)N[C@@H](CCCNC(=N)N)C(=O)N[C@@H](C)C(=O)N3)NC(=O)[C@H](CCCNC(=N)N)NC(=O)[C@H](CC(C)C)NC(=O)CNC(=O)[C@H](Cc1cn(CCCOCCOCCOCCOCCOCCOCCOCCOCCOCCOCCN)nn1)NC2=O [compound 406]
- IC50 [1, 3]: 0.00588 µM
- IC50 [2, 3]: 0.0659 µM
- Nav1.4/Nav1.7 ([2]; ratio of PX IC50 values): 11

Compound: C#CC[C@H](N)C(=O)NCCCC[C@@H]1NC(=O)[C@H](CCCNC(=N)N)NC(=O)[C@H](CCCCN)NC(=O)[C@H](CO)NC(=O)[C@H](CC(=O)O)NC(=O)[C@@H]2CSSC[C@@H]3NC(=O)[C@H](CCC(=O)O)NC(=O)[C@H](CC(C)C)NC(=O)CNC(=O)[C@H](CCC(=O)O)NC(=O)[C@H](CSSC[C@H](NC(=O)[C@H](Cc4ccc(O)cc4)NC(=O)[C@@H](N)CC#N)C(=O)N[C@@H](CCC(N)=O)C(=O)N[C@@H](CCCCN)C(=O)N[C@@H](Cc4c[nH]c5ccccc45)C(=O)N[C@@H](CCCC)C(=O)N[C@@H](Cc4c[nH]c5ccccc45)C(=O)N[C@@H]([C@@H](C)O)C(=O)N2)NC(=O)[C@H](CSSC[C@@H](C(=O)N[C@@H](CCCNC(=N)N)C(=O)N[C@@H](CCCCN)C(=O)N[C@H](C(=O)N[C@H](C(N)=O)[C@@H](C)CC)[C@@H](C)CC)NC(=O)[C@H](Cc2c[nH]c4ccccc24)NC(=O)[C@H](CC(C)C)NC(=O)[C@H](CCCCN)NC3=O)NC1=O [compound 393]
- IC50 ([1]; tonic block): > 0.1 µM
- IC50 ([2]; tonic block): > 10 µM

Compound: C#CC[C@@H]1NC(=O)[C@@H]2CSSC[C@H](NC(=O)[C@H](Cc3ccc(O)cc3)NC(=O)[C@@H](N)CC#N)C(=O)N[C@@H](CCC(N)=O)C(=O)N[C@@H](CCCCN)C(=O)N[C@@H](Cc3c[nH]c4ccccc34)C(=O)N[C@@H](CCCC)C(=O)N[C@@H](Cc3c[nH]c4ccccc34)C(=O)N[C@@H]([C@@H](C)O)C(=O)N[C@H]3CSSC[C@H](NC(=O)[C@H](CCC(=O)O)NC(=O)[C@H](CC(C)C)NC(=O)CNC1=O)C(=O)N[C@@H](CCCCN)C(=O)N[C@@H](CC(C)C)C(=O)N[C@@H](Cc1c[nH]c4ccccc14)C(=O)N[C@H](C(=O)N[C@@H](CCCNC(=N)N)C(=O)N[C@@H](CCCCN)C(=O)N[C@@H](Cc1ccc(O)cc1)C(=O)N[C@H](C(N)=O)[C@@H](C)CC)CSSC[C@H](NC(=O)[C@H](C)NC(=O)[C@H](CCCNC(=N)N)NC(=O)[C@H](CCCCN)NC(=O)[C@H](CO)NC(=O)[C@H](CC(=O)O)NC3=O)C(=O)N2 [compound 397]
- IC50 ([1]; tonic block): 0.0871 µM
- IC50 ([2]; tonic block): 1.76 µM
- Nav1.4/Nav1.7 ([2]; ratio of PX tonic IC50 values): 20
